Laboratory results from patent US10253002B2, “Compounds and methods of treating infections” (Neoculi Pty Ltd., priority 2013, dated 2019).
Converted amounts (≈) assume the structure as drawn. “And” between values parts separate entries of the source, which are not always exact repeats. Equal entries are not always repeated. Where two headings read alike, the source gives them in different places.

What was measured:
Pseudomonas aeruginosa = assay: Broth microdilution MIC, Example 7 (NCL812 and analogues); assay type: cell-based; conditions: for MIC: Pseudomonas aeruginosa
[1] = tested on: S. aureus clinical isolates (MRSA and MSSA); assay: Broth microdilution MIC, Example 4; assay type: cell-based, Staphylococcus aureus; conditions: for MIC / MIC50 / MIC90: Staphylococcus aureus; for MIC: 24 h
Protocol: Microtiter plates containing two-fold dilutions of each antimicrobial agent were inoculated with ˜10^5 CFU/ml of each isolate in a 100 μL final volume. Plates were incubated for 24 h at 37° C. Turbidity (absorbance at OD600) was measured using a Bio-Rad Benchmark Plus microplate spectrophotometer in Microplate Manager® version 5.2.1 (Bio-Rad). Minimum inhibitory concentration (MIC) endpoints were defined as the lowest antimicrobial concentration assessed by the spectrophotometer that inhibited bacterial growth. ATCC 49775 was included in the isolate collection as a control organism using breakpoints defined by the CLSI. The MIC50, MIC90 (concentrations that inhibited growth of the lower 50% and 90% of total organisms, respectively), and MIC range (minimum and maximum) were calculated to profile the antimicrobial susceptibility of the isolate collection.

Streptococcus pneumoniae = assay: Broth microdilution MIC (CLSI) in 4% LHB-CAMHB, Example 1; assay type: cell-based
Protocol: The powder was dissolved in 10 mL DMSO and 1 mL volumes were aliquoted into eppendorf tubes and stored at -80° C. […] Serial dilutions were prepared in 96 well plates were set up in a safety cabinet according to methods standard in the art. Briefly: 90 μL of the working antibiotic solution was added to each well in Column 12 of the plate, and mixed well, before 90 μL was transferred to column 11. The solutions were mixed again, and then transferred to the next column as before, continuing the dilutions through to column 3. Mixing the well requires the pick up and expulsion of 90 μL in each well 3-4 times before picking up and transferring the 90 μL to the next well. […] The bacterial solution was placed into a sterile trough and 10 μL of bacterial solution added into wells 2 through to 12 on each required row (dilution of 1:10, with final concentration of bacteria in wells=5×10^5 CFU/mL). The tray was sealed and incubated at 37° C. for 18-24 h. The purity of bacterial suspension was confirmed by streaking out 50 μL of the 1:20 dilution onto a SBA plate, which was incubated for 37° C. for 18 h and examined. Viable counts were carried out to ensure that the correct concentration of bacteria and been added to the wells. […] The following day the number of colonies on the plates was counted and the average count in 100 μL obtained. The study was multiplied by 10 to obtain a viable bacterial count per mL. Minimum inhibitory concentrations (μg/mL) were determined using the broth microdilution method recommended by the Clinical and Laboratory Standards Institute (CLSI) (Methods for Dilution Antimicrobial Susceptibility Tests for Bacteria That Grow Aerobically; Approved Standard-Seventh Edition. CLSI M7-A7, 2006; Performance Standards for Antimicrobial Disk and Dilution Susceptibility Tests for Bacteria Isolated from Animals; Approved Standard-Second Edition. CLSI […]-A2, 2002; Performance Standards for Antimicrobial Susceptibility Testing; CLSI M2-A9, 2006). […] Bacterial growth (turbidity) in the wells with antimicrobial was compared with the amount of growth (turbidity) in the growth-control well (containing no antimicrobial). All isolates were tested in duplicate, if there was a difference of greater than one two-fold dilution in the results, the test was repeated a third time. The purity of the isolates was closely monitored during testing by subculturing the prepared bacterial inoculum onto SBA. Control organisms (Enterococcus faecalis strain ATCC 29212, S. aureus strain ATCC 29213 and S. pneumoniae strain ATCC 49619) were used throughout the testing to monitor quality control. […] The MIC50, MIC90 and MIC range (minimum and maximum) were calculated for each of the bacterial groups.

[2] = tested on: Staphylococcus aureus T3-129 / Staphylococcus spp. MK1; assay: Synergy studies, checkerboard method (FIC index); assay type: cell-based
[3] = 24 h, read-out: MIC (μg/ml) at 24 hours, P. aeruginosa, 24 hours, 1st and 2nd replicate rows
[4] = P. aeruginosa, 1st, read-out: MIC
[5] = P. aeruginosa, 2nd, read-out: MIC
[6] = Methicillin-susceptible staphylococci (n = 10)
[7] = Total bacterial isolates (n = 30)
[8] = Streptococcus pneumoniae, Strep. pneumoniae 3, Test 2, read-out: MIC
[9] = Streptococcus pneumoniae, Strep. pneumoniae 16, Test 1, read-out: MIC
[10] = Streptococcus pneumoniae, Strep. pneumoniae 16, Test 2, read-out: MIC

Structure (SMILES): N=C(N/N=C/c1ccc(Cl)cc1)N/N=C/c1ccc(Cl)cc1 [NCL812, 1,3-bis[(E)-(4-chlorophenyl)methyleneamino]guanidine]
- MIC (μg/ml) at 24 hours, P. aeruginosa (Pseudomonas aeruginosa; 24 hours, 1st and 2nd replicate rows): >128 µg/mL
- MIC (Pseudomonas aeruginosa; [3]): > 128 µg/mL
- MIC (Pseudomonas aeruginosa; [4]): > 128 µg/mL
- MIC (Pseudomonas aeruginosa; [5]): > 128 µg/mL
- MIC (Pseudomonas aeruginosa; read-out: MIC): > 128 µg/mL
- MICrange ([1]; CA-MRSA (n = 10)): 2 to 4 µg/mL
- MICrange [1, 6]: 2 to 8 µg/mL
- MICrange [1, 7]: 2 to 8 µg/mL
- MIC (Streptococcus pneumoniae; [8]): 2 µg/mL (≈ 5.98 µM)
- MIC (Streptococcus pneumoniae; [9]): 0.5 µg/mL (≈ 1.5 µM)
- MIC (Streptococcus pneumoniae; [10]): 1 µg/mL (≈ 2.99 µM)
- FIC2 ([2]; MIC of NCL812 in combination with Chloramphenicol/MIC of NCL812 alone, S. aureus strain T3-29): 0.25 and 0.5
- FIC2 ([2]; MIC of NCL812 in combination with Erythromycin/MIC of NCL812 alone, S. aureus strain T3-29): 0.5 and 0.25
- FIC2 ([2]; MIC of NCL812 in combination with Penicillin G/MIC of NCL812 alone, Staphylococcus spp. Strain MK1): 0.5
- FIC2 ([2]; MIC of NCL812 in combination with Sulfamethoxazole/MIC of NCL812 alone, Staphylococcus spp. Strain MK1): 0.25 and 0.5
- NCL812 MIC Alone ([2]; Staphylococcus spp. Strain MK1, NCL812 alone): 2 µg/mL
- NCL812 MIC With Antibiotic ([2]; with Erythromycin, S. aureus strain T3-29): 2 µg/mL
- NCL812 MIC With Antibiotic ([2]; with Penicillin G, Staphylococcus spp. Strain MK1): 2 µg/mL
- NCL812 MIC With Antibiotic ([2]; with Sulfamethoxazole, Staphylococcus spp. Strain MK1): 1 µg/mL and 2 µg/mL

Structure (SMILES): CC1(C)S[C@@H]2[C@H](NC(=O)[C@H](N)c3ccccc3)C(=O)N2[C@H]1C(=O)O [Ampicillin]
- MIC (Pseudomonas aeruginosa; [3]): > 128 µg/mL
- MIC (Pseudomonas aeruginosa; [4]): > 128 µg/mL
- MIC (Pseudomonas aeruginosa; [5]): > 128 µg/mL
- MICrange ([1]; CA-MRSA (n = 10)): 8 to 128 µg/mL
- MICrange [1, 6]: 0.25-16^ μg/ml
- MIC ([1]; read-out: Observed MIC at 24-h, MRSA580, present study): > 128 µg/mL
- MIC ([1]; read-out: Observed MIC at 24-h, MRSA698, present study): 16 µg/mL (≈ 45.8 µM)
- MIC ([1]; read-out: Original MIC at 24-h, MRSA580, preliminary studies): > 128 µg/mL
- MIC ([1]; read-out: Original MIC at 24-h, MRSA698, preliminary studies): 16 µg/mL (≈ 45.8 µM)
- MIC ([1]; ATCC 49775 / MRSA / MSSA, read-out: Observed MIC at 24-h, ATCC 49775, present study): 0.25 µg/mL (≈ 0.715 µM)
- MIC50 ([1]; CA-MRSA (n = 10)): 64 µg/mL (≈ 183 µM)
- MIC90 ([1]; CA-MRSA (n = 10)): 128 µg/mL (≈ 366 µM)
- MIC50 ([1]; HA-MRSA (n = 10)): 64 µg/mL (≈ 183 µM)
- MIC90 ([1]; HA-MRSA (n = 10)): > 128 µg/mL
- MIC50 [1, 6]: 0.25 µg/mL (≈ 0.715 µM)
- MIC90 [1, 6]: 8 µg/mL (≈ 22.9 µM)
- MIC50 [1, 7]: 16 µg/mL (≈ 45.8 µM)
- MIC90 [1, 7]: 128 µg/mL (≈ 366 µM)
- MIC90 (Streptococcus pneumoniae; Str. pneumoniae, 20 isolates): 0.25 µg/mL (≈ 0.715 µM)
- MIC90 (Streptococcus pneumoniae; Streptococcus pneumoniae isolates of Table 5, Test 1, read-out: MIC90): 0.25 µg/mL (≈ 0.715 µM)
- MIC90 (Streptococcus pneumoniae; Streptococcus pneumoniae isolates of Table 5, Test 2): 0.25 µg/mL (≈ 0.715 µM)
- MIC (Streptococcus pneumoniae; Streptococcus pneumoniae, ATCC49619, S. pneumoniae strain ATCC 49619, read-out: MIC of control strain (internal quality control)): 0.06 µg/mL
- MIC (Streptococcus pneumoniae; Streptococcus pneumoniae, ATCC49619, Strep. pneumoniae ATCC 49619, Test 1, read-out: MIC): < 0.25 µg/mL
- MIC (Streptococcus pneumoniae; Streptococcus pneumoniae, ATCC49619, Strep. pneumoniae ATCC 49619, Test 2, read-out: MIC): < 0.25 µg/mL
- MIC (Streptococcus pneumoniae; Streptococcus pneumoniae, Strep. pneumoniae 1, Test 1, read-out: MIC): < 0.25 µg/mL
- MIC (Streptococcus pneumoniae; Streptococcus pneumoniae, Strep. pneumoniae 1, Test 2, read-out: MIC): < 0.26 µg/mL
- MIC (Streptococcus pneumoniae; Streptococcus pneumoniae, Strep. pneumoniae 2, Test 1, read-out: MIC): < 0.26 µg/mL
- MIC (Streptococcus pneumoniae; Streptococcus pneumoniae, Strep. pneumoniae 2, Test 2, read-out: MIC): < 0.25 µg/mL
- MIC (Streptococcus pneumoniae; Streptococcus pneumoniae, Strep. pneumoniae 3, Test 1, read-out: MIC): < 0.25 µg/mL
- MIC (Streptococcus pneumoniae; [8]): < 0.25 µg/mL
- MIC (Streptococcus pneumoniae; Streptococcus pneumoniae, Strep. pneumoniae 4, Test 1, read-out: MIC): < 0.25 µg/mL
- MIC (Streptococcus pneumoniae; Streptococcus pneumoniae, Strep. pneumoniae 4, Test 2, read-out: MIC): < 0.25 µg/mL
- MIC (Streptococcus pneumoniae; Streptococcus pneumoniae, Strep. pneumoniae 5, Test 1, read-out: MIC): < 0.25 µg/mL
- MIC (Streptococcus pneumoniae; Streptococcus pneumoniae, Strep. pneumoniae 5, Test 2, read-out: MIC): < 0.26 µg/mL
- MIC (Streptococcus pneumoniae; Streptococcus pneumoniae, Strep. pneumoniae 6, Test 1, read-out: MIC): < 0.26 µg/mL
- MIC (Streptococcus pneumoniae; Streptococcus pneumoniae, Strep. pneumoniae 6, Test 2, read-out: MIC): < 0.25 µg/mL
- MIC (Streptococcus pneumoniae; Streptococcus pneumoniae, Strep. pneumoniae 7, Test 1, read-out: MIC): < 0.25 µg/mL
- MIC (Streptococcus pneumoniae; Streptococcus pneumoniae, Strep. pneumoniae 7, Test 2, read-out: MIC): < 0.26 µg/mL
- MIC (Streptococcus pneumoniae; Streptococcus pneumoniae, Strep. pneumoniae 8, Test 1, read-out: MIC): < 0.25 µg/mL
- MIC (Streptococcus pneumoniae; Streptococcus pneumoniae, Strep. pneumoniae 8, Test 2, read-out: MIC): < 0.25 µg/mL
- MIC (Streptococcus pneumoniae; Streptococcus pneumoniae, Strep. pneumoniae 9, Test 1, read-out: MIC): < 0.26 µg/mL
- MIC (Streptococcus pneumoniae; Streptococcus pneumoniae, Strep. pneumoniae 9, Test 2, read-out: MIC): < 0.25 µg/mL
- MIC (Streptococcus pneumoniae; Streptococcus pneumoniae, Strep. pneumoniae 10, Test 1, read-out: MIC): < 0.06 µg/mL
- MIC (Streptococcus pneumoniae; Streptococcus pneumoniae, Strep. pneumoniae 10, Test 2, read-out: MIC): < 0.06 µg/mL
- MIC (Streptococcus pneumoniae; Streptococcus pneumoniae, Strep. pneumoniae 12, Test 1, read-out: MIC): < 0.06 µg/mL
- MIC (Streptococcus pneumoniae; Streptococcus pneumoniae, Strep. pneumoniae 12, Test 2, read-out: MIC): < 0.06 µg/mL
- MIC (Streptococcus pneumoniae; Streptococcus pneumoniae, Strep. pneumoniae 13, Test 1, read-out: MIC): < 0.06 µg/mL
- MIC (Streptococcus pneumoniae; Streptococcus pneumoniae, Strep. pneumoniae 13, Test 2, read-out: MIC): < 0.06 µg/mL
- MIC (Streptococcus pneumoniae; Streptococcus pneumoniae, Strep. pneumoniae 14, Test 1, read-out: MIC): < 0.06 µg/mL
- MIC (Streptococcus pneumoniae; Streptococcus pneumoniae, Strep. pneumoniae 14, Test 2, read-out: MIC): < 0.06 µg/mL
- MIC (Streptococcus pneumoniae; Streptococcus pneumoniae, Strep. pneumoniae 15, Test 1, read-out: MIC): 0.25 µg/mL (≈ 0.715 µM)
- MIC (Streptococcus pneumoniae; Streptococcus pneumoniae, Strep. pneumoniae 15, Test 2, read-out: MIC): 0.25 µg/mL (≈ 0.715 µM)
- MIC (Streptococcus pneumoniae; [9]): 2 µg/mL (≈ 5.72 µM)
- MIC (Streptococcus pneumoniae; [10]): 2 µg/mL (≈ 5.72 µM)
- MIC (Streptococcus pneumoniae; Streptococcus pneumoniae, Strep. pneumoniae 18, Test 1, read-out: MIC): 0.25 µg/mL (≈ 0.715 µM)
- MIC (Streptococcus pneumoniae; Streptococcus pneumoniae, Strep. pneumoniae 18, Test 2, read-out: MIC): 0.25 µg/mL (≈ 0.715 µM)
- MIC (Streptococcus pneumoniae; Streptococcus pneumoniae, Strep. pneumoniae 19, Test 1, read-out: MIC): 0.25 µg/mL (≈ 0.715 µM)
- MIC (Streptococcus pneumoniae; Streptococcus pneumoniae, Strep. pneumoniae 19, Test 2, read-out: MIC): 0.25 µg/mL (≈ 0.715 µM)
- MIC (Streptococcus pneumoniae; Streptococcus pneumoniae, Strep. pneumoniae 20, Test 1, read-out: MIC): 2 µg/mL (≈ 5.72 µM)
- MIC (Streptococcus pneumoniae; Streptococcus pneumoniae, Strep. pneumoniae 20, Test 2, read-out: MIC): 2 µg/mL (≈ 5.72 µM)
- MIC50 (Streptococcus pneumoniae; Streptococcus pneumoniae, Str. pneumoniae, 20 isolates): < 0.25 µg/mL
- MIC (Streptococcus pneumoniae; Streptococcus pneumoniae, Str. pneumoniae, 20 isolates, read-out: MIC mode): < 0.25 µg/mL
- FICI ([2]; S. aureus strain T3-29, FIC index of antibiotic with NCL812): 0.75 and 0.53
- FIC1 ([2]; S. aureus strain T3-29, MIC of antibiotic in combination with NCL812/MIC of antibiotic alone): 0.5
- Result (interaction with NCL812) ([2]; S. aureus strain T3-29, antibiotic with NCL812): NE (No effect (NE) was defined as 0.5<FICI<4)
